ChEMBL document CHEMBL1201862, “PubChem BioAssay data set” (2004)
Activity calls are given as the source filed them.

Experiments:
[1] = target: Heat shock cognate 71 kDa protein (Homo sapiens, UniProt P11142); test: In Vitro Hsc70 Dose Response Fluorescence Polarization Assay. [Related pubchem assays: 1072 ]
[2] = target: Heat shock 70 kDa protein 1A (Homo sapiens, UniProt P0DMV8); test: Hsp70 inhibitors, SAR follow-up, biochemical, fluorescence polarization (AID 1072)
[3] = HIV-1 Env-mediated cell fusion inhibitors, dose response, CCR5-tropic Env (AID 2279); format: functional
[4] = Luminescence Cell-Based Dose Retest to Confirm Inhibitors of Cancer Stem Cells. [Related pubchem assays (depositor defined):AID2717, AID2721]; format: functional; settings: Homo sapiens
[5] = target: T1, Mannose-6-phosphate isomerase (Homo sapiens, UniProt P34949); test: inhibitors of human PMI, primary screen, biochemical, fluorescence intensity, coupled assay (AID 1209)
T1 sequence (P34949 whole entry): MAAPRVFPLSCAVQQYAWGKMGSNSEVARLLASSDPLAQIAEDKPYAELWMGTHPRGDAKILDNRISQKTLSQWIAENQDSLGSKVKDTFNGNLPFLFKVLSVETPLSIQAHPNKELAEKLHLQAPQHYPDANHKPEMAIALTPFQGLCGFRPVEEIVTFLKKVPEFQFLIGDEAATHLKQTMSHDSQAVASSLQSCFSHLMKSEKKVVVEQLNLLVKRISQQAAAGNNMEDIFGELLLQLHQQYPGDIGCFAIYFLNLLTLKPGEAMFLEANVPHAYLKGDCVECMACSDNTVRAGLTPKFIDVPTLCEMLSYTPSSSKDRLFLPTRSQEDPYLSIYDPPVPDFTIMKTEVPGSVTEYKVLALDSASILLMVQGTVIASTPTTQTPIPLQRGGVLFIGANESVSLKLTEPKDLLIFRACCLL

[6] = target: T2, Aminopeptidase N (Plasmodium falciparum FcB1/Columbia, UniProt O96935); test: P. falciparum M1AAP inhibitors, biochemical, fluorogenic H-Leu-NHMec substrate, 1536-well (AID 1445); parameters: species or system Plasmodium falciparum 3D7, 3D7
T2 sequence (O96935 whole entry): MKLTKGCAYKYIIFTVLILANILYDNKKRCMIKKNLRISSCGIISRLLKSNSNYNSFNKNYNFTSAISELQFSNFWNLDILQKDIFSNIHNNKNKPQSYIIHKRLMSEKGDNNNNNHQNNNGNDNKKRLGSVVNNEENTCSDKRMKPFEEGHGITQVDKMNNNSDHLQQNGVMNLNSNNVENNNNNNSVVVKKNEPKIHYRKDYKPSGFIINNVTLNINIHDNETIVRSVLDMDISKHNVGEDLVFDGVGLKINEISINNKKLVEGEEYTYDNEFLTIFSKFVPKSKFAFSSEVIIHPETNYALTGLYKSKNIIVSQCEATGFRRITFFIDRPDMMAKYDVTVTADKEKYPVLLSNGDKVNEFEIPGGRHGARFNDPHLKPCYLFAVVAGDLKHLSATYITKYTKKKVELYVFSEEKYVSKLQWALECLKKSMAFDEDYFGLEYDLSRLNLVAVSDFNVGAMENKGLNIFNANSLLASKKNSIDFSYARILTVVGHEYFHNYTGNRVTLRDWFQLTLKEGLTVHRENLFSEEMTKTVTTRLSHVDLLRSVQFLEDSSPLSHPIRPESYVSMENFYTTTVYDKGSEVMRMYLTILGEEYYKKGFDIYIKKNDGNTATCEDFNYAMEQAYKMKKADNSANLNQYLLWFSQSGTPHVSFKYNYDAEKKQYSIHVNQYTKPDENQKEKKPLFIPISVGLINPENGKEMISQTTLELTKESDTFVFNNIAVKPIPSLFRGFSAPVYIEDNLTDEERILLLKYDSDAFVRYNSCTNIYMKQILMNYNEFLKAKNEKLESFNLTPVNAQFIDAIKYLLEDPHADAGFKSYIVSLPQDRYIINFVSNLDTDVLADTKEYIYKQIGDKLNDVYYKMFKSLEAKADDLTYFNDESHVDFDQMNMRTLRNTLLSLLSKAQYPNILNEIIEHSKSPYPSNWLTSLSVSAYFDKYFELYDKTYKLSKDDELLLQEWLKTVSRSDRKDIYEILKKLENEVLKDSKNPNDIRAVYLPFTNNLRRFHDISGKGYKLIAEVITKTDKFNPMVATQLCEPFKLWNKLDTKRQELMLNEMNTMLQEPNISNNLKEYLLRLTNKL

[7] = target: T3, High affinity choline transporter 1 (Homo sapiens, UniProt Q9GZV3); test: CHT inhibitors, dose response, cell-based, 5-point CRC, membrane potential dye (AID 504840); format: functional
T3 sequence (Q9GZV3 whole entry): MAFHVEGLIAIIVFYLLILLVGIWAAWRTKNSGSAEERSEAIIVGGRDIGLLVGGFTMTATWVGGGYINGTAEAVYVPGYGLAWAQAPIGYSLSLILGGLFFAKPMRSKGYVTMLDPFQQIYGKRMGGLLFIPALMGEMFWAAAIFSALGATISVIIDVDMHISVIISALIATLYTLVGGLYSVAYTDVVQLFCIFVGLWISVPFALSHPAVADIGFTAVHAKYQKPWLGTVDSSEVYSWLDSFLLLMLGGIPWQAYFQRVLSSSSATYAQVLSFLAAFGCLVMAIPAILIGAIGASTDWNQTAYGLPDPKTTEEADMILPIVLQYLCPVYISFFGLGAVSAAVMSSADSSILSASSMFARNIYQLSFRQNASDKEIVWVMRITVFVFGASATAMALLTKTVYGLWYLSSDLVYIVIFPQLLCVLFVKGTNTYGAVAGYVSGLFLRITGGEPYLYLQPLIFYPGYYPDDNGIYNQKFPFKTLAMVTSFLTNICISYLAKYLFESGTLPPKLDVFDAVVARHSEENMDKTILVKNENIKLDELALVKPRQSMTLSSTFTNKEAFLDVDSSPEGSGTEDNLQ

[8] = inhibitors of HIV Env-driven cell fusion, dose response, cherry-pick (AID 652057); format: functional, cell-based
[9] = off-target signal loss in HeLa-CEM21 co-culture – HeLa F-luc CTL cells, cherry-picked, counter-screen for HIV-1 Env fusion inhibitor project, dose response (AID 652040); format: functional, cell-based;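 also: potency for signal decrease marking cytotoxic or nonspecific inhibition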
[10] = inhibitors of clade B AD8 Env fusion, dose response, cell-based, cherry-pick (AID 652062); format: functional;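 also: luciferase signal from cell-cell fusion driven by HIV-1 clade B AD8 Env; potency is for inhibitors of fusion seen as a drop in luminescence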
[11] = Luminescence Cell-Based Dose Response to Identify Activators of 5'UTR Stem-Loop Driven Prion Protein mRNA Translation in H4-C Neuroglioblastoma Cells. [Related pubchem assays: 1829 (Project Summary), 1814 (Primary HTS)]; format: functional
[12] = Luminescence Cell-Based Dose Confirmation HTS to Identify Activators of 5'UTR Stem-Loop Driven Alpha-Synuclein mRNA Translation in H4 Neuroglioblastoma Cells. [Related pubchem assays: 1829 (Project Summary), 1814 (Primary HTS)]; format: functional
[13] = Luminescence Cell-Based Dose Response HTS to Identify Activators of Luciferase Translation or Activity in H4 […] Cells. [Related pubchem assays: 1829 (Project Summary), 1814 (Primary HTS)]; format: functional
[14] = system: H4; test: Luminescence Cell-Based Dose Response HTS to Identify Activators of 5'UTR Stem-Loop Driven Prion Protein mRNA Translation in H4 Neuroglioblastoma Cells. [Related pubchem assays: 1829 (Project Summary), 1814 (Primary HTS)]; format: functional; settings: Homo sapiens
[15] = Luminescence Cell-Based Dose Response to Identify Activators of Luciferase Translation or Activity in H4-C Neuroglioblastoma Cells. [Related pubchem assays: 1829 (Project Summary), 1814 (Primary HTS)]; format: functional
[16] = Luminescence Cell-Based Dose Confirmation to Identify Activators of 5'UTR Stem-Loop Driven Alpha-Synuclein mRNA Translation in H4 Neuroglioblastoma Cells. [Related pubchem assays: 1829 (Project Summary), 1814 (Primary HTS)]; format: functional
[17] = target: T4, Oxysterols receptor LXR-beta (Homo sapiens, UniProt P55055); format: functional, cell-based;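 also: Cell-based luminescence dose-response assay of agonist activity at LXR, run as a confirmatory counterscreen to a daf-12 agonist screen; HEK293 cells with Gal4-LXR fusion and GAL4-driven luciferase reporter; agonist potency from rising luciferase signal of a Gal4-LXR reporter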
T4 sequence (P55055 whole entry): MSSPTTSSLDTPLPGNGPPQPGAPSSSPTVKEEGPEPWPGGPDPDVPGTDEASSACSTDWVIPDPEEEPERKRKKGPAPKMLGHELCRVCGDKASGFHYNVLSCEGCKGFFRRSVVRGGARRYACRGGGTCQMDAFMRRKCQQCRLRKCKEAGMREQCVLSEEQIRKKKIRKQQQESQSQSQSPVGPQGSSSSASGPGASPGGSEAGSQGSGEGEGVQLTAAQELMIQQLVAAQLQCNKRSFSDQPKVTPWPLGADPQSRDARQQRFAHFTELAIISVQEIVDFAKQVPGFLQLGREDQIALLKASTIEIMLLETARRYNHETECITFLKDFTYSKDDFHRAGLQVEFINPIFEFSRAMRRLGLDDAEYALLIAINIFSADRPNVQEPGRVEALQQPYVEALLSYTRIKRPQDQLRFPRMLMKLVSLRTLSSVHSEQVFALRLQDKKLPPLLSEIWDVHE

[18] = cells
[19] = target: T5, Alkaline phosphatase, tissue-nonspecific isozyme (Homo sapiens, UniProt P05186)
T5 sequence (P05186 whole entry): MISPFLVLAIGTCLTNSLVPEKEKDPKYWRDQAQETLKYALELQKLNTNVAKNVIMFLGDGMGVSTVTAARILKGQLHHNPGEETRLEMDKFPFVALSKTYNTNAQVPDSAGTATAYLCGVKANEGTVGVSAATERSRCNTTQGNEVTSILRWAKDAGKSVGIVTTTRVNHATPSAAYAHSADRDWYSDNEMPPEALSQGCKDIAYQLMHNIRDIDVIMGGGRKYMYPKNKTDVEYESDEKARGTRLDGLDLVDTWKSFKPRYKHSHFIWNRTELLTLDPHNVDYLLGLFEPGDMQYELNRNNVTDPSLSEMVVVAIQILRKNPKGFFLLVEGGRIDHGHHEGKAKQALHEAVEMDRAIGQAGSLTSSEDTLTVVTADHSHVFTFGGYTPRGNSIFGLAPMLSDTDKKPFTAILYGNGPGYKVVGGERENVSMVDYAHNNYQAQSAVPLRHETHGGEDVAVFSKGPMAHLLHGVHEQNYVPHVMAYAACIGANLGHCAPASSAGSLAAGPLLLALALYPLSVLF

[20] = target: Nonstructural protein 1 (Influenza A virus, UniProt Q194T2); format: functional, Influenza A virus (A/California/07/2009(H1N1))
Chain of Nonstructural protein 1 (Q194T2 whole entry): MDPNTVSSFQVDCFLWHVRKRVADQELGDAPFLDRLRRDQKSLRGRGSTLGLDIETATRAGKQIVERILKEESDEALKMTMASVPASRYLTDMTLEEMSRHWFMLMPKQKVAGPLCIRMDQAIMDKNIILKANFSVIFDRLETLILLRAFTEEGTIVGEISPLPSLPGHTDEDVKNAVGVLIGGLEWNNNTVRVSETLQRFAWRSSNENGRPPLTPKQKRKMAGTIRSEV

Chain of Heat shock 70 kDa protein 1A (P0DMV8 whole entry, the tested form may be a part): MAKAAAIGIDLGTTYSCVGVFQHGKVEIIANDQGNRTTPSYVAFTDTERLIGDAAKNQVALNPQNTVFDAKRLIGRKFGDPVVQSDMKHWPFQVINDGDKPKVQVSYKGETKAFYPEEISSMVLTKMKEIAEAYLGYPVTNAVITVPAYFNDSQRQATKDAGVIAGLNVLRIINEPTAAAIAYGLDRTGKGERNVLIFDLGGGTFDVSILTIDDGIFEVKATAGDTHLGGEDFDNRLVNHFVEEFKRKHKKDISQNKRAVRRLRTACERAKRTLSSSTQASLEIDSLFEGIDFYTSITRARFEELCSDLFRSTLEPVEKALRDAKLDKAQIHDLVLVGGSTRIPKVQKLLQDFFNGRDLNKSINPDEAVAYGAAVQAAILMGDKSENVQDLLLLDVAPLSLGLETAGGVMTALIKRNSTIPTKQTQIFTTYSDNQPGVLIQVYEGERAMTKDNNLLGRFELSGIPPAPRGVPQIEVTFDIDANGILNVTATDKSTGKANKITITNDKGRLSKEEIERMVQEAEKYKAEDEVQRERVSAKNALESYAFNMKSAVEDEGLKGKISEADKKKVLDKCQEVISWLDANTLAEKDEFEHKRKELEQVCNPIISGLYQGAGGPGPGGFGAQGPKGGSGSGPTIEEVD
Chain of Heat shock cognate 71 kDa protein (P11142 whole entry): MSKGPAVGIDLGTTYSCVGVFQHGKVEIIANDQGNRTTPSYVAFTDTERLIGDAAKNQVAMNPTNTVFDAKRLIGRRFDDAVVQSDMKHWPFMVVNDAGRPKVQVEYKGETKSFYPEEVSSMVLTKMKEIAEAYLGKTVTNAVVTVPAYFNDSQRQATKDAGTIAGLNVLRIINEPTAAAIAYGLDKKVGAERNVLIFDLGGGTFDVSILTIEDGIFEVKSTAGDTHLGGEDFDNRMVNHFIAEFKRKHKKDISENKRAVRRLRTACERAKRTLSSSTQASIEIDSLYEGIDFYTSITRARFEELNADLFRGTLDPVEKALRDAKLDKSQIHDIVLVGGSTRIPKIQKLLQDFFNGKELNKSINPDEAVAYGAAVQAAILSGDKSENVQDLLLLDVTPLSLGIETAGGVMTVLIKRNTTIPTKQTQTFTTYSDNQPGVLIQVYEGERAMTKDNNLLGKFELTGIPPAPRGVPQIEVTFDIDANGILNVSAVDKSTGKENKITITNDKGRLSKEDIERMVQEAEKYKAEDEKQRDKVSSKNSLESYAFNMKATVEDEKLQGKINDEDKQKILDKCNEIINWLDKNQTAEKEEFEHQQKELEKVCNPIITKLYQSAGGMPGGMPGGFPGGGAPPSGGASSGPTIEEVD

Structure (SMILES): O=C1C=C2CC3(O)CCc4c(ccc(O)c4O)C3=C2C=C1O (stereo unspecified)
- IC50 [1]: > 100 µM (not active)
- IC50 [2]: 34.2 µM (active)

Structure (SMILES): COc1ccc(C(=O)/C=C/c2ccc(OCc3ccccc3)cc2)cc1CSCC(=O)O
- IC50 [3]: 42.8 µM (active)
- AC50 [4]: 5.79 µM (active)

Structure (SMILES): Cc1cccc(NC(=O)C2CC(=O)n3cnnc3S2)c1 (stereo unspecified)
- IC50 [5]: > 50 µM (not active)

Structure (SMILES): O=S(=O)(Nc1nc2ccccc2nc1Nc1cccc(S(=O)(=O)N2CCCCC2)c1)c1ccccc1
- IC50 [6]: 91.9 µM (active)
- IC50 [3]: 5.7 µM (active)
- IC50 [7]: 12 µM (active)
- AC50 [8]: 8.16 µM (active)
- AC50 [9]: 23.9 µM (active)
- AC50 [10]: 12 µM (active)

Structure (SMILES): O=C(Nc1ccccc1)Nc1cccc2nsnc12
- EC50 [11]: 0.452 µM (active)
- EC50 [12]: 0.19 µM (active)
- EC50 [13]: < 0.1 µM (inconclusive)
- EC50 [14]: 1.37 µM (active)
- EC50 [15]: 0.739 µM (active)
- EC50 [16]: > 12 µM (not active)
- EC50 [17]: > 67.5 µM (inactive)
- EC50 [18]: > 67.5 µM (inactive)

Structure (SMILES): Cc1c(C(=O)N(C)C)sc2[nH]c(-c3ccccn3)nc(=O)c12
- EC50 [19]: 63.6 µM (not active)
- IC50 [20]: 13.1 µM (active)
